# According to ChEMBL document CHEMBL1201862, “PubChem BioAssay data set” (2004):
#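 Protocol summary: plate cells (96-well), add compound at 5 concentrations, incubate 48 h, interpolate endpoints linearly. GI50 marks 50% less growth.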 Activity calls are given as the source filed them. Rule as the data show it: active = GI50 up to about 1.1 µM and inactive = higher.
# How the values were obtained:
# Assay in all cases: NCI tumour cell line growth inhibition, 48 h
# [1] = tested on: 786-0
# [2] = tested on: ACHN
# [3] = tested on: CCRF-CEM
# [4] = tested on: EKVX
# [5] = tested on: HCC 2998
# [6] = tested on: HCT-116
# [7] = tested on: HCT-15
# [8] = tested on: HL-60
# [9] = tested on: HOP-62
# [10] = tested on: HT-29
# [11] = tested on: Hs-578T
# [12] = tested on: K562
# [13] = tested on: KM12
# [14] = tested on: MCF7
# [15] = tested on: MOLT-4
# [16] = tested on: Malme-3M
# [17] = tested on: NCI-H226
# [18] = tested on: NCI-H23
# [19] = tested on: NCI-H460
# [20] = tested on: NCI-H522
# [21] = tested on: OVCAR-3
# [22] = tested on: OVCAR-5
# [23] = tested on: OVCAR-8
# [24] = tested on: PC-3
# [25] = tested on: RPMI-8226
# [26] = tested on: SF-268
# [27] = tested on: SF-295
# [28] = tested on: SF-539
# [29] = tested on: SK-MEL-28
# [30] = tested on: SK-MEL-2
# [31] = tested on: SN12C
# [32] = tested on: SNB-75
# [33] = tested on: SR
# [34] = tested on: TK-10
# [35] = tested on: U-251
# [36] = tested on: UACC-257
# [37] = tested on: A549
# [38] = tested on: CAKI-1
# [39] = tested on: COLO 205
# [40] = tested on: DU-145
# [41] = tested on: HOP-92
# [42] = tested on: IGROV-1
# [43] = tested on: M14
# [44] = tested on: MDA-MB-435
# [45] = tested on: NCI/ADR-RES
# [46] = tested on: OVCAR-4
# [47] = tested on: RXF 393
# [48] = tested on: SK-MEL-5
# [49] = tested on: SK-OV-3
# [50] = tested on: SNB-19
# [51] = tested on: SW-620
# [52] = tested on: T47D
# [53] = tested on: UACC-62
# [54] = tested on: UO-31
structure (smiles),measurement,setting,value
O=C(NCCCn1ccnc1[N+](=O)[O-])C(=O)NCCCn1ccnc1[N+](=O)[O-],GI50,[1],> 100 µM (inactive)
same,GI50,[2],> 100 µM (inactive)
same,GI50,[3],> 100 µM (inactive)
same,GI50,[4],> 100 µM (inactive)
same,GI50,[5],> 100 µM (inactive)
same,GI50,[6],> 100 µM (inactive)
same,GI50,[7],> 100 µM
same,GI50,[8],> 100 µM (inactive)
same,GI50,[9],> 100 µM (inactive)
same,GI50,[10],> 100 µM (inactive)
same,GI50,[11],> 100 µM (inactive)
same,GI50,[12],> 100 µM (inactive)
same,GI50,[13],> 100 µM (inactive)
same,GI50,[14],> 100 µM (inactive)
same,GI50,[15],> 100 µM (inactive)
same,GI50,[16],> 100 µM (inactive)
same,GI50,[17],> 100 µM (inactive)
same,GI50,[18],> 100 µM (inactive)
same,GI50,[19],> 100 µM (inactive)
same,GI50,[20],> 100 µM (inactive)
same,GI50,[21],> 100 µM (inactive)
same,GI50,[22],> 100 µM (inactive)
same,GI50,[23],69.2 µM (inactive)
same,GI50,[24],> 100 µM (inactive)
same,GI50,[25],> 100 µM (inactive)
same,GI50,[26],> 100 µM (inactive)
same,GI50,[27],> 100 µM (inactive)
same,GI50,[28],> 100 µM (inactive)
same,GI50,[29],> 100 µM (inactive)
same,GI50,[30],45.2 µM (inactive)
same,GI50,[31],90.6 µM (inactive)
same,GI50,[32],> 100 µM (inactive)
same,GI50,[33],> 100 µM (inactive)
same,GI50,[34],31.3 µM (inactive)
same,GI50,[35],> 100 µM (inactive)
same,GI50,[36],> 100 µM (inactive)
O=C1C(Cl)=C(Cl)C(=O)C(CCNc2nccs2)=C1Cl,GI50,[1],23.3 µM (inactive)
same,GI50,[37],> 100 µM (inactive)
same,GI50,[2],27.4 µM (inactive)
same,GI50,[38],19.3 µM (inactive)
same,GI50,[3],0.335 µM (active)
same,GI50,[39],32.8 µM (inactive)
same,GI50,[40],58.7 µM (inactive)
same,GI50,[4],24.5 µM (inactive)
same,GI50,[5],> 100 µM (inactive)
same,GI50,[6],28.2 µM (inactive)
same,GI50,[7],20.4 µM
same,GI50,[8],43.7 µM (inactive)
same,GI50,[9],> 100 µM (inactive)
same,GI50,[41],22.1 µM (inactive)
same,GI50,[10],35.2 µM (inactive)
same,GI50,[11],33.5 µM (inactive)
same,GI50,[42],14.8 µM (inactive)
same,GI50,[12],22.3 µM (inactive)
same,GI50,[13],32.7 µM (inactive)
same,GI50,[43],20.2 µM (inactive)
same,GI50,[14],33 µM (inactive)
same,GI50,[44],21.4 µM (inactive)
same,GI50,[15],51.4 µM (inactive)
same,GI50,[16],20.4 µM (inactive)
same,GI50,[18],31.2 µM (inactive)
same,GI50,[19],> 100 µM (inactive)
same,GI50,[20],13.1 µM (inactive)
same,GI50,[45],25.5 µM (inactive)
same,GI50,[21],25.8 µM (inactive)
same,GI50,[46],> 100 µM (inactive)
same,GI50,[22],44.3 µM (inactive)
same,GI50,[23],29.5 µM (inactive)
same,GI50,[24],18.5 µM (inactive)
same,GI50,[47],22.4 µM (inactive)
same,GI50,[26],38.6 µM (inactive)
same,GI50,[27],> 100 µM (inactive)
same,GI50,[28],33.7 µM (inactive)
same,GI50,[29],39 µM (inactive)
same,GI50,[30],27.6 µM (inactive)
same,GI50,[48],19.5 µM (inactive)
same,GI50,[49],> 100 µM (inactive)
same,GI50,[31],29.3 µM (inactive)
same,GI50,[50],> 100 µM (inactive)
same,GI50,[32],23.3 µM (inactive)
same,GI50,[33],47.2 µM (inactive)
same,GI50,[51],29.4 µM (inactive)
same,GI50,[52],43.5 µM (inactive)
same,GI50,[34],29.2 µM (inactive)
same,GI50,[35],36.3 µM (inactive)
same,GI50,[36],21.1 µM (inactive)
same,GI50,[53],20.7 µM (inactive)
same,GI50,[54],21.2 µM (inactive)
